As usually defined, the LD50 is the dose at which mortality reaches 50%. A high value points to a less toxic substance.

Experimental findings from patent US4833156A, “Treating amnesia with a pyrrolidone derivative” (Kirin Beer Kabushiki Kaisha, priority 1987, dated 1989) are described below.

Data set [1] relates to proline specific endopeptidase. In words: Inhibition of proline specific endopeptidase activity (residual peptidase activity). The format is biochemical. As to conditions: inhibitor concentration not given. The procedure:
The inhibitory effects of the compounds represented by the formula (I) were determined by measuring the residual peptidase activity. The experimental procedure was agreed with the method by Tadashi Yoshimoto and Daisuke Tsuru: Tanpakushitsu, Kakusan and Koso, 29 (2), 127 (1984).

Data set [2] relates to scopolamine induced amnesia in rats. Briefly: Rat delayed-matching test (scopolamine-induced amnesia). It is filed as in vivo, rat (SD, male, 150 to 300 g). To be noted: for remission of scopolamine induced amnesia: oral, 20 min before test, (-)-scopolamine hydrochloride 0.06 mg/kg s.c., delay times 0.1, 4, 16, 32 s, FIG. 3 and FIG. 4. From the text: An apparatus equipped with two lever switches on the respective sides of the front face of the inside of an operant experimental box (25×31×33 cm), red lamps just above respective levers and a white lamp at a further upper position was used for the experiment. A rat bred under restricted feeding (SD, male, 150 to 300 g) was placed in the apparatus. Either one of the red lamps arranged on the right and left sides was lit for 5 seconds, and, at a specific time (delayed time) after it was turned off, the white lamp at the center was lit. The system of the apparatus was so set that if the lever which was at the side of the red lamp having lit was pushed, a feed pellet (ca. 50 mg) was given as a correct choice, and if another lever was pushed no pellet was given as an incorrect choice. After the training had been conducted to ensure that, in the test of delay time being 0.1 sec, the correct choice rate was maintained at the level of 80% or more for three consecutive days, the test was conducted. In the test, delay times were set at 0.1, 4, 16 and 32 seconds, and, at each of the delay times, 6 runs were conducted at random (24 runs in total, 1 run/minute). […] N-(4'-chlorobenzenesulfonyl)-2-pyrrolidone and aniracetam were administered orally in the form of suspensions in 0.3% Tween 80 at 20 minutes before test.

The subject of data set [3] is cycloheximide (CXM)-induced amnesia in mice. Briefly: Mouse step-down test (cycloheximide-induced amnesia). The format is in vivo, mouse (ddY, male, 5 to 6 week old). As to conditions: conclusion for the mouse step-down test. On the procedure:
The test was carried out in accordance with the method described by Nabeshima et al.: Psychopharmacology, (1986) 89, 334-337. That is, a wooden platform (4×4×4 cm) was placed in the center on a floor of a stainless steel grid (30×30 cm), and the whole apparatus was surrounded with clear acrylic resin plates. In acquisition test, a mouse (ddY, male, 5 to 6 week old) was placed on the platform, and electric stimulus was applied for 20 seconds immediately after the mouse stepped down on the grid. Then the mouse was taken out of the apparatus and cycloheximide hydrochloride (30 mg/kg) was administered subcutaneously in order to induce amnesia. In the retention test, the mouse was again placed on the platform, and the time before the mouse stepped down on the grid was measured as the step-down latency. N-(4'-chlorobenzenesulfonyl)-2-pyrrolidone and aniracetam were individually suspended in 0.3% Tween 80 and administered orally at 20 minutes before acquisition test.

Data set [4] can be described thus: Acute toxicity, oral administration to mice. It is filed as in vivo, mouse (ddY. As to conditions: mouse, in vivo, ddY male mice, 7 week old. The text has this:
(§1) Acute toxicity was evaluted by oral administration of the compounds to ddY male mice (7 week old).

In another data set the test system is ddY male mice. Briefly: Acute toxicity, oral administration to mice. It is filed as in vivo, mouse (ddY. As to conditions: 7 week old, result in words.
Description: as §1

For the compound `Cc1ccc(S(=O)(=O)N2CCCC2=O)cc1` [Synthetic Example 1,2, N-(4'-toluenesulfonyl)-2-pyrrolidone], the “Residual Activity” value in data set [1] was 47.4.
For the compound `COc1ccc(C(=O)N2CCCC2=O)cc1` [Aniracetam, aniracetam, reference compound], the “Residual Activity” value in data set [1] is listed as 89.5. Moreover, the “remission of scopolamine induced amnesia” value in data set [2] was “did not remitted at all scopolamine induced amnesia”.
Regarding `O=C1CCCN1S(=O)(=O)c1ccc(Cl)cc1` [Synthetic Example 3,4, N-(4'-chlorobenzenesulfonyl)-2-pyrrolidone], the “Residual Activity” value in data set [1] was 51.3. In addition, the “anti-amnestic effect compared with aniracetam” value in data set [3] was “exhibited an anti-amnestic effect and was more effective than aniracetam”; in data set [2] (conclusion for the rat delayed-matching test), “exhibited an anti-amnestic effect and was more effective than aniracetam”. The “remission of scopolamine induced amnesia” value in data set [2] is “showed remission of scopolamine induced amnesia at several dosages and delay times”. The LD50 in data set [4] was ≥ 2000 mg/kg. In addition, the safety entry with ddY male mice is given as “High level of safety”.
As for `O=C1CCCN1S(=O)(=O)c1ccccc1` [Synthetic Example 5,6, N-benzenesulfonyl-2-pyrrolidone], the “Residual Activity” value in data set [1] amounted to 51.3.
